In ChEMBL document CHEMBL1201862, “PubChem BioAssay data set” (2004):
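The compound was tested at five concentrations on cells cultured in 96-well plates, with a 48-hour exposure period. GI50 = concentration required for 50% inhibition of growth.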 Active and inactive are the calls of the source. Rule as the data show it: active = GI50 up to about 1.1 µM and inactive = higher.

What was measured:
Experiment in all cases: DTP human tumour cell line panel, 48 h
[1] = tested on: 786-0
[2] = tested on: A498
[3] = tested on: A549
[4] = tested on: ACHN
[5] = tested on: BT-549
[6] = tested on: CAKI-1
[7] = tested on: CCRF-CEM
[8] = tested on: COLO 205
[9] = tested on: DU-145
[10] = tested on: EKVX
[11] = tested on: HCC 2998
[12] = tested on: HCT-116
[13] = tested on: HCT-15
[14] = tested on: HL-60
[15] = tested on: HOP-62
[16] = tested on: HOP-92
[17] = tested on: HT-29
[18] = tested on: Hs-578T
[19] = tested on: K562
[20] = tested on: KM12
[21] = tested on: LOX IMVI
[22] = tested on: M14
[23] = tested on: MCF7
[24] = tested on: MDA-MB-231
[25] = tested on: MDA-MB-435
[26] = tested on: MDA-N
[27] = tested on: MOLT-4
[28] = tested on: Malme-3M
[29] = tested on: NCI-H226
[30] = tested on: NCI-H23
[31] = tested on: NCI-H460
[32] = tested on: NCI-H522
[33] = tested on: NCI/ADR-RES
[34] = tested on: OVCAR-3
[35] = tested on: OVCAR-4
[36] = tested on: OVCAR-5
[37] = tested on: OVCAR-8
[38] = tested on: PC-3
[39] = tested on: RXF 393
[40] = tested on: SF-268
[41] = tested on: SF-295
[42] = tested on: SF-539
[43] = tested on: SK-MEL-28
[44] = tested on: SK-MEL-2
[45] = tested on: SK-MEL-5
[46] = tested on: SK-OV-3
[47] = tested on: SN12C
[48] = tested on: SNB-19
[49] = tested on: SNB-75
[50] = tested on: SW-620
[51] = tested on: T47D
[52] = tested on: TK-10
[53] = tested on: U-251
[54] = tested on: UACC-257
[55] = tested on: UACC-62
[56] = tested on: UO-31
[57] = tested on: IGROV-1
[58] = tested on: RPMI-8226

Measured: GI50

O=C(c1cc(Cl)cc(Cl)c1)N(C(=O)N1CCN(c2ccccc2)CC1)c1ccccc1
17 µM: [13]
inactive: [1] 43.1 µM | [2] 21.2 µM | [3] 23.2 µM | [4] 72.9 µM | [5] 48.1 µM | [6] 33.1 µM | [7] 22.5 µM | [8] 17.3 µM | [9] 80.9 µM | [10] 20.7 µM | [11] 51.9 µM | [12] 24.3 µM | [14] 17.2 µM | [15] 87.1 µM | [16] 34.5 µM | [17] 25.6 µM | [18] 56.1 µM | [19] 10.5 µM | [20] 23.5 µM | [21] 36.5 µM | [22] 27.6 µM | [23] 29.9 µM | [24] 52.1 µM | [25] 11.1 µM | [26] 12.7 µM | [27] 20.1 µM | [28] 47 µM | [29] 22.8 µM | [30] 41.1 µM | [31] 29.7 µM | [32] 16.4 µM | [33] 25.6 µM | [34] 66.1 µM | [35] 23 µM | [36] 22.3 µM | [37] 53.5 µM | [38] 25.1 µM | [39] 37 µM | [40] 43.1 µM | [41] 37.2 µM | [42] 41 µM | [43] 56.1 µM | [44] 24.8 µM | [45] 21.6 µM | [46] 96.6 µM | [47] 55.6 µM | [48] 53.3 µM | [49] > 100 µM | [50] 30.3 µM | [51] 18.1 µM | [52] 54.6 µM | [53] 39.7 µM | [54] 28.9 µM | [55] 24.9 µM | [56] 18.7 µM

Cc1cn([C@H]2CN(O)C[C@@H](CO)O2)c(=O)[nH]c1=O
> 100 µM: [13]
inactive: [1] > 100 µM | [2] > 100 µM | [3] > 100 µM | [4] > 100 µM | [5] > 100 µM | [6] > 100 µM | [8] > 100 µM | [9] > 100 µM | [10] > 100 µM | [11] > 100 µM | [12] > 100 µM | [14] > 100 µM | [15] > 100 µM | [18] > 100 µM | [57] > 100 µM | [19] > 100 µM | [20] > 100 µM | [22] > 100 µM | [23] > 100 µM | [24] > 100 µM | [25] > 100 µM | [26] > 100 µM | [27] > 100 µM | [29] > 100 µM | [31] > 100 µM | [35] > 100 µM | [36] > 100 µM | [37] > 100 µM | [38] > 100 µM | [58] > 100 µM | [39] > 100 µM | [40] > 100 µM | [41] > 100 µM | [42] > 100 µM | [43] > 100 µM | [44] > 100 µM | [45] > 100 µM | [46] > 100 µM | [47] > 100 µM | [48] > 100 µM | [49] > 100 µM | [50] > 100 µM | [51] > 100 µM | [52] > 100 µM | [53] > 100 µM | [54] > 100 µM | [55] > 100 µM | [56] > 100 µM

O=C(NN=C1CCCCC1)NN=C1CCCCC1
> 100 µM: [13]
inactive: [5] > 100 µM | [6] > 100 µM | [7] > 100 µM | [8] > 100 µM | [9] > 100 µM | [12] > 100 µM | [15] > 100 µM | [17] > 100 µM | [18] > 100 µM | [57] > 100 µM | [19] > 100 µM | [20] > 100 µM | [21] > 100 µM | [22] > 100 µM | [23] > 100 µM | [24] > 100 µM | [25] > 100 µM | [26] > 100 µM | [27] > 100 µM | [28] > 100 µM | [30] > 100 µM | [31] > 100 µM | [33] > 100 µM | [34] > 100 µM | [35] > 100 µM | [36] > 100 µM | [37] > 100 µM | [38] > 100 µM | [39] > 100 µM | [41] > 100 µM | [43] > 100 µM | [45] > 100 µM | [46] > 100 µM | [47] > 100 µM | [48] > 100 µM | [49] > 100 µM | [50] > 100 µM | [51] > 100 µM | [52] > 100 µM | [53] > 100 µM | [54] > 100 µM | [55] > 100 µM | [56] > 100 µM
